Results on six molecules are retold here after ChEMBL document CHEMBL1158320, “Antiandrogenic natural Diels--Alder-type adducts from Brosimum rubescens” (J Nat Prod, 1997).

In general, inhibition refers to the relative decrease from the control value, in per cent.

Activity calls are given as the source filed them. The rule behind the calls is not given here.

Holding throughout (details): Prostate gland
The species named for test [1] is Rattus norvegicus. The test can be described thus: Inhibition of 5alpha reductase in Wistar rat ventral prostate at 100 ug/mL by radiochromatography. Format: tissue-based.
The species entered for test [2] is Rattus norvegicus. The test can be described thus: Inhibition of 5alpha reductase in Wistar rat ventral prostate at 50 ug/mL by radiochromatography. Format: tissue-based.
The target of test [3] is T1, Androgen receptor (Rattus norvegicus) (UniProt P15207).
T1 sequence (whole entry): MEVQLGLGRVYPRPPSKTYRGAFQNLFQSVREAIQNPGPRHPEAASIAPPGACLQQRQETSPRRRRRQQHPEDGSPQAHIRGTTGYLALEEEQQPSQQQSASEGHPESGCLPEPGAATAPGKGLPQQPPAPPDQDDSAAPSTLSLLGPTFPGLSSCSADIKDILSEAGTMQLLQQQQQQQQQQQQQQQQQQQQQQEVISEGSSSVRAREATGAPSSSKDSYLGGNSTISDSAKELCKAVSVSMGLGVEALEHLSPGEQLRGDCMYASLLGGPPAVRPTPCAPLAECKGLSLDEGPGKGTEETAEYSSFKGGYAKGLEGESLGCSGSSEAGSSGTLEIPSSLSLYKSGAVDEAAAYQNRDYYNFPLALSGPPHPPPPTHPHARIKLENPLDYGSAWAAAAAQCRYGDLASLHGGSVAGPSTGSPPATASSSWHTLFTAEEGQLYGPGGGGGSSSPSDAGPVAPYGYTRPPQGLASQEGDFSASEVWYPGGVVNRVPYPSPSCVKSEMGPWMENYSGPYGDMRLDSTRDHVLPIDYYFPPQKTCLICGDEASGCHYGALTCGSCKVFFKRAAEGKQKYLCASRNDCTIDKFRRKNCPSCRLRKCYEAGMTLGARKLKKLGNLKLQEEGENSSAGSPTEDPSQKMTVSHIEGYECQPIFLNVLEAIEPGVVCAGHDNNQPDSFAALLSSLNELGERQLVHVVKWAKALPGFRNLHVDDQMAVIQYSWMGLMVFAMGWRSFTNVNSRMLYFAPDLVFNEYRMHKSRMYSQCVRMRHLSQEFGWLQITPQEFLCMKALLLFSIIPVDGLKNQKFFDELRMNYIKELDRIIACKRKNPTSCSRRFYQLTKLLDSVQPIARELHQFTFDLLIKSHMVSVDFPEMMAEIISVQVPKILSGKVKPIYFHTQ
As to the kind of experiment: Displacement of [3H]dihydrotestosterone from androgen receptor in Wistar rat ventral prostate at 100 ug/mL by liquid scintillation counting. Format: tissue-based.

For test [4], the species on record is Rattus norvegicus. The test can be described thus: Inhibition of 5alpha reductase in Wistar rat ventral prostate at 200 ug/mL by radiochromatography. Format: tissue-based.
Test [5] deals with T1, Androgen receptor (Rattus norvegicus). As to the kind of experiment: Displacement of [3H]dihydrotestosterone from androgen receptor in Wistar rat ventral prostate at 200 ug/mL by liquid scintillation counting. In general terms: Loss of bound radioactivity is the signal in a displacement assay; it reports binding, not function.
Test [6] has the same target. As to the kind of experiment: Displacement of [3H]dihydrotestosterone from androgen receptor in Wistar rat ventral prostate at 50 ug/mL by liquid scintillation counting. Format: tissue-based.

In the case of `COc1cc(O)ccc1[C@@H]1CC(C)=C[C@H]2c3cc4ccc(=O)oc4cc3O[C@H](c3ccc(O)c(O)c3)[C@H]21`, the inhibition in the test filed under Rattus norvegicus [1] was 8.4%; in the test listed under Rattus norvegicus [2], 0.2%; in test [3] it was -8.6%; in the test listed under Rattus norvegicus [4] it was 19.8%.

Consider `COc1cc(O)ccc1[C@H]1Oc2cc3oc(=O)ccc3cc2[C@@H]2C=C(C)C[C@@H](c3ccc(O)cc3OC)[C@H]12`, for which the inhibition in test [5] was 62%; in the test filed under Rattus norvegicus [1], 49.9%; in the test listed under Rattus norvegicus [2], 8.6%; in test [6] it was 60.3%; in test [3] it was 70.9%; in the test listed under Rattus norvegicus [4] it was 72.3%.

Regarding `COc1cc(O)ccc1[C@@H]1CC(C)=C[C@H]2c3cc4ccc(=O)oc4cc3O[C@H](c3ccc(O)cc3)[C@H]21`, the inhibition was determined as 61.5% in test [5]; 44.1% in the test listed under Rattus norvegicus [1]; 3.4% in the test filed under Rattus norvegicus [2]; 56.5% in test [6]; 57.5% in test [3]; 69.2% in the test filed under Rattus norvegicus [4].

With `COc1cc(O)ccc1[C@H]1Oc2cc3oc(=O)ccc3cc2[C@@H]2C=C(C)C[C@@H](c3ccc(O)cc3)[C@H]12`, the inhibition is 78.6% in test [5]; 28.8% in the test listed under Rattus norvegicus [1]; 5.4% in the test listed under Rattus norvegicus [2]; 62.5% in test [6]; 73.3% in test [3]; 59.2% in the test listed under Rattus norvegicus [4].

For the molecule `COc1cc(O)ccc1[C@H]1Oc2cc3oc(=O)ccc3cc2[C@@H]2C=C(C)C[C@@H](c3ccc(O)c(O)c3)[C@H]12`, the inhibition was determined as 4.8% in the test filed under Rattus norvegicus [1], 0.3% in the test listed under Rattus norvegicus [2] and 5.2% in the test listed under Rattus norvegicus [4].

On to `CC[C@H]1C[C@H]2[C@@H]3CCC4=CC(=O)CC[C@@H]4[C@H]3CC[C@]2(C)[C@H]1O`, for which the result in the test listed under Rattus norvegicus [2] was Active.
